Measured values: PubChem BioAssay AID1963863 (Molecular Pharmacology Branch, DTP, NCI, 2024)

System: 931267-113-T-J1-PDC KRAS spheroid with HUVEC/MSC, viability
Assay: Anticancer human tumor 931267-113-T-J1-PDC patient-derived colon adenocarcinoma cell line growth inhibition [KRAS2]
Settings: for viability, T/C: stronger effect = lower value
In short: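 KRAS-mutant tumor cells were grown as spheroids with HUVEC endothelial cells and human MSCs as stroma. Targeted agents were tested alone and with KRAS pathway inhibitors. Doses started at or near clinical Cmax, or 10 microM, descending half-log.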

[1] = curve of first compound, second compound 0.1 µM
[2] = curve of first compound, second compound 0.316 µM
[3] = curve of first compound, second compound 1 µM
[4] = curve of first compound, second compound 3.16 µM
[5] = second compound 0.1 µM, first compound 0.0001 µM
[6] = second compound 0.1 µM, first compound 0.000316 µM
[7] = second compound 0.1 µM, first compound 0.001 µM
[8] = second compound 0.1 µM, first compound 0.00316 µM
[9] = second compound 0.1 µM, first compound 0.01 µM
[10] = second compound 0.1 µM, first compound 0.0316 µM
[11] = second compound 0.316 µM, first compound 0.0001 µM
[12] = second compound 0.316 µM, first compound 0.000316 µM
[13] = second compound 0.316 µM, first compound 0.001 µM
[14] = second compound 0.316 µM, first compound 0.00316 µM
[15] = second compound 0.316 µM, first compound 0.01 µM
[16] = second compound 0.316 µM, first compound 0.0316 µM
[17] = second compound 1 µM, first compound 0.0001 µM
[18] = second compound 1 µM, first compound 0.000316 µM
[19] = second compound 1 µM, first compound 0.001 µM
[20] = second compound 1 µM, first compound 0.00316 µM
[21] = second compound 1 µM, first compound 0.01 µM
[22] = second compound 1 µM, first compound 0.0316 µM
[23] = second compound 3.16 µM, first compound 0.0001 µM
[24] = second compound 3.16 µM, first compound 0.000316 µM
[25] = second compound 3.16 µM, first compound 0.001 µM
[26] = second compound 3.16 µM, first compound 0.00316 µM
[27] = second compound 3.16 µM, first compound 0.01 µM
[28] = second compound 3.16 µM, first compound 0.0316 µM
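Note: compound exposure lasted 7 days before the readout.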
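Throughout, for viability, T/C: 100% = DMSO vehicle control viability.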

| Compound | IC50 [1] [nM] | IC50 [2] [nM] | IC50 [3] [nM] | IC50 [4] [nM] | viability, T/C [5] [%] | viability, T/C [6] [%] | viability, T/C [7] [%] | viability, T/C [8] [%] | viability, T/C [9] [%] | viability, T/C [10] [%] | viability, T/C [11] [%] | viability, T/C [12] [%] | viability, T/C [13] [%] | viability, T/C [14] [%] | viability, T/C [15] [%] | viability, T/C [16] [%] | viability, T/C [17] [%] | viability, T/C [18] [%] | viability, T/C [19] [%] | viability, T/C [20] [%] | also measured |
| --- | --- | --- | --- | --- | --- | --- | --- | --- | --- | --- | --- | --- | --- | --- | --- | --- | --- | --- | --- | --- | --- |
| CC(=O)Nc1cccc(-n2c(=O)n(C3CC3)c(=O)c3c(Nc4ccc(I)cc4F)n(C)c(=O)c(C)c32)c1 + C=CC(=O)N1CCN(c2nc(OCC3CCCN3C)nc3c2CCN(c2cccc4cccc(C)c24)C3)CC1CC#N | 11.9 | 4.45 | 1.48 | < 0.1 | 83 | 82.4 | 64.2 | 72.6 | 59.5 | 8.65 | 69.7 | 83 | 54.9 | 53.8 | 42.7 | 9.24 | 74.7 | 59.8 | 45.9 | 52.9 | IC50 (curve of first compound, second compound 0.0316 µM): 6.25 nM; viability, T/C (second compound 0.0316 µM, first compound 0.0001 µM): 98.9%; viability, T/C (second compound 0.0316 µM, first compound 0.000316 µM): 78%; viability, T/C (second compound 0.0316 µM, first compound 0.001 µM): 69.3%; viability, T/C (second compound 0.0316 µM, first compound 0.00316 µM): 54.7%; viability, T/C (second compound 0.0316 µM, first compound 0.01 µM): 60.3%; viability, T/C (second compound 0.0316 µM, first compound 0.0316 µM): 13.2%; viability, T/C [21]: 28.2%; viability, T/C [22]: 9.56%; viability, T/C [23]: 0.22%; viability, T/C [24]: 0.24%; viability, T/C [25]: 0.28%; viability, T/C [26]: 0.24%; viability, T/C [27]: 0.21%; viability, T/C [28]: 0.25% |
| CC(=O)OC12COC1CC(O)C1(C)C(=O)C(O)C3=C(C)C(OC(=O)C(O)C(NC(=O)OC(C)(C)C)c4ccccc4)CC(O)(C(OC(=O)c4ccccc4)C21)C3(C)C (stereo not given) | – | – | – | – | – | – | – | – | – | – | – | – | – | – | – | – | – | – | – | – | viability, T/C (compound 0.0316 µM): 91.1% [middle of 5 runs]; viability, T/C (compound 0.1 µM): 84.7% [middle of 5 runs]; viability, T/C (compound 0.316 µM): 86.2% [middle of 5 runs]; IC50 (curve of compound): > 3160 nM |
| CC(=O)Nc1cccc(-n2c(=O)n(C3CC3)c(=O)c3c(Nc4ccc(I)cc4F)n(C)c(=O)c(C)c32)c1 + C=CC(=O)N1CCN(c2nc(=O)n(-c3c(C)ccnc3C(C)C)c3nc(-c4c(O)cccc4F)c(F)cc23)C(C)C1 | 10.5 | 9.41 | 11.3 | 31.6 | 88.7 | 81.9 | 66.7 | 60.1 | 62.9 | 9.67 | 97.1 | 94.5 | 74.1 | 71.3 | 53.8 | 10.6 | 88.5 | 97.4 | 93.9 | 59.5 | IC50 (curve of first compound, second compound 10 µM): 2.79 nM; viability, T/C [21]: 62.6%; viability, T/C [22]: 12.9%; viability, T/C [23]: 123%; viability, T/C [24]: 99%; viability, T/C [25]: 62.8%; viability, T/C [26]: 54%; viability, T/C [27]: 64.7%; viability, T/C [28]: 19.6%; viability, T/C (second compound 10 µM, first compound 0.0001 µM): 85.8%; viability, T/C (second compound 10 µM, first compound 0.000316 µM): 82.4%; viability, T/C (second compound 10 µM, first compound 0.001 µM): 49.1%; viability, T/C (second compound 10 µM, first compound 0.00316 µM): 50.9%; viability, T/C (second compound 10 µM, first compound 0.01 µM): 44.7%; viability, T/C (second compound 10 µM, first compound 0.0316 µM): 28.3% |
| Cn1ncnc1[C@H]1c2n[nH]c(=O)c3cc(F)cc(c23)N[C@@H]1c1ccc(F)cc1 | – | – | – | – | – | – | – | – | – | – | – | – | – | – | – | – | – | – | – | – | viability, T/C (compound 0.000316 µM): 102% [middle of 5 runs]; viability, T/C (compound 0.001 µM): 97.8% [middle of 5 runs]; viability, T/C (compound 0.00316 µM): 98.9% [middle of 5 runs]; viability, T/C (compound 0.01 µM): 88.3% [middle of 5 runs]; viability, T/C (compound 0.0316 µM): 94.4% [middle of 5 runs]; IC50 (curve of compound): > 100 nM |
